Like-named read-outs stand apart in the source and are kept apart here.
Settings: normal human subjects, measured over 24 hours

## C[C@@H](O)CCOC(=O)C[C@@H](C)O [D-β-hydroxybutyrate-R 1,3-butanediol monoester]
Single dose 140 mg/kg ketone ester in milk-based drink
  maximum plasma ketone concentration: 0.23 mM
Single dose 357 mg/kg ketone ester in milk-based drink
  maximum plasma ketone concentration: 0.76 mM
Single dose 714 mg/kg ketone ester in milk-based drink
  maximum plasma ketone concentration: 3.42 mM
